From ChEMBL document CHEMBL5661943, “ASAP - In vitro antiviral effect” (2024)

Columns and labels:
[1] = tested on: Zika virus; assay: EC50 is reported via analysis of immunofluorescence staining. The assay has been performed by Icahn School of Medicine at Mount Sinai.; assay type: functional, organism-based, Chlorocebus sabaeus, VeroE6/TMPRSS2; details: Baseline response 0 %, P-gp concentration 2 uM, P-gp inhibitor Elacidar
[2] = tested on: Zika virus; assay: (§1) Functional CPE-based assay to measure dose dependent changes in antiviral-drug inhibitory efficacy against Zika virus MR766 in Vero E6 miRFP670 cells. Cells are treated with antiviral candidates that are serially diluted. EC50 is reported via analysis of MTS assay as a readout of CPE. The assay has been performed by KU Leuven.; assay type: organism-based, Chlorocebus sabaeus, Vero C1008; details: for EC90: Baseline response 0 %, Maximum response 100 %
[3] = tested on: dengue virus type 2; assay: Functional assay to measure dose dependent changes in antiviral-drug inhibitory efficacy against Dengue virus type 2 New Guinea C in Vero E6 miRFP670 cells (cotreated with P-gp inhibitor, CP100356). Cells are treated with antiviral candidates that are serially diluted, following infection, cells are fixed. EC50 is reported via analysis of fluorescence intensity using high-content imager. The …; assay type: organism-based, Chlorocebus sabaeus, Vero C1008; details: Baseline response 0 %, Maximum response 100 %, P-gp concentration 500 nM, P-gp inhibitor CP100356
[4] = tested on: dengue virus type 2; assay: Functional immunofluorescence assay to measure dose dependent changes in antiviral-drug inhibitory efficacy against Dengue virus type 2 Thailand/16681/84 in Vero E6/TMPRSS2 cells (cotreated with P-gp inhibitor, Elacridar). Cells are treated with antiviral candidates that are serially diluted, following infection, cells are fixed. EC50 is reported via analysis of immunofluorescence staining. The assay has been performed by Icahn School of Medicine at Mount Sinai.; assay type: organism-based, Chlorocebus sabaeus, VeroE6/TMPRSS2; details: Baseline response 0 %, Maximum response 100 %, P-gp concentration 2 uM, P-gp inhibitor Elacidar
[5] = tested on: Zika virus; assay: as §1, with “cells (cotreated with P-gp inhibitor, CP100356).” for “cells.”; assay type: organism-based, Chlorocebus sabaeus, Vero C1008; details: Baseline response 0 %, Maximum response 100 %, P-gp concentration 500 nM, P-gp inhibitor CP100356

## C#C[C@@]1(O)[C@H](O)[C@@H](CO)O[C@H]1n1ccc2c(N)ncnc21
[1]; EC90 CI (lower) 0.001 uM, EC90 CI (upper) 0.006 uM, Hill slope -0.989, Maximum measured 96.238 %, Maximum response 100 %, Minimum measured 0.519 %, R squared 0.897
  EC90: 224 nM
[1]; EC90 CI (lower) 0.002 uM, EC90 CI (upper) 0.011 uM, Hill slope -0.683, Maximum measured 98.748 %, Maximum response 100 %, Minimum measured 0.794 %, R squared 0.927
  EC90: 2880 nM
[1]; EC90 CI (lower) 0.002 uM, EC90 CI (upper) 0.016 uM, Hill slope -0.839, Maximum measured 81.893 %, Maximum response 100 %, Minimum measured 1.248 %, R squared 0.884
  EC90: 1180 nM
[1]; EC90 CI (lower) 0.007 uM, EC90 CI (upper) 0.18 uM, Hill slope -1.662, Maximum measured 169.951 %, Maximum response 100 %, Minimum measured 5.93 %, R squared 0.731
  EC90: 510 nM
[1]; EC90 CI (lower) 0.03 uM, EC90 CI (upper) 0.119 uM, Hill slope -3.091, Maximum measured 117.52 %, Maximum response 100 %, Minimum measured 1.1 %, R squared 0.948
  EC90: 247 nM
[1]; EC90 CI (lower) 0.051 uM, EC90 CI (upper) 0.519 uM, Hill slope -4.939, Maximum measured 48.685 %, Maximum response 50 %, Minimum measured […], R squared 0.852
  EC90: 395 nM
[1]; EC90 CI (lower) 0.102 uM, EC90 CI (upper) 0.325 uM, Hill slope -1.64, Maximum measured 123.086 %, Maximum response 100 %, Minimum measured 10.677 %, R squared 0.94
  EC90: 2650 nM
[1]; Hill slope -0.492, Maximum measured 74.448 %, Maximum response 100 %, Minimum measured 1.207 %, R squared 0.744
  EC90: > 10000 nM
[2]; EC90 CI (lower) 0.609 uM, EC90 CI (upper) 2.047 uM, Hill slope 2.369, Maximum measured 114.788 %, Minimum measured 45.711 %, R squared 0.779
  EC90: 1120 nM
[2]; EC90 CI (lower) 0.671 uM, EC90 CI (upper) 2.798 uM, Hill slope 1.934, Maximum measured 102.059 %, Minimum measured 46.421 %, R squared 0.63
  EC90: 1370 nM
[2]; EC90 CI (lower) 0.837 uM, EC90 CI (upper) 2.594 uM, Hill slope 2.016, Maximum measured 108.843 %, Minimum measured 40.384 %, R squared 0.792
  EC90: 1470 nM
[2]; EC90 CI (lower) 0.846 uM, EC90 CI (upper) 2.023 uM, Hill slope 2.239, Maximum measured 110.829 %, Minimum measured 40.755 %, R squared 0.884
  EC90: 1310 nM
[2]; EC90 CI (lower) 0.889 uM, EC90 CI (upper) 2.697 uM, Hill slope 2.299, Maximum measured 106.469 %, Minimum measured 29.185 %, R squared 0.791
  EC90: 1550 nM
[2]; EC90 CI (lower) 1.189 uM, EC90 CI (upper) 2.428 uM, Hill slope 2.067, Maximum measured 109.57 %, Minimum measured 34.796 %, R squared 0.858
  EC90: 1700 nM
[2]; EC90 CI (lower) 1.447 uM, EC90 CI (upper) 5.92 uM, Hill slope 1.376, Maximum measured 98.736 %, Minimum measured 36.6 %, R squared 0.773
  EC90: 2930 nM
[2]; EC90 CI (lower) 2.603 uM, EC90 CI (upper) 13.676 uM, Hill slope 1.372, Maximum measured 98.49 %, Minimum measured 18.919 %, R squared 0.79
  EC90: 5970 nM
[2]; vero c1008
  EC50: 587 nM [middle of 8 runs]
[3]; EC90 CI (lower) 0.063 uM, EC90 CI (upper) 0.198 uM, Hill slope -1.33, Maximum measured 59.85 %, Minimum measured 0.021 %, R squared 0.933
  EC90: 3.05 µM
[3]; EC90 CI (lower) 0.096 uM, EC90 CI (upper) 0.332 uM, Hill slope -1.394, Maximum measured 69.235 %, Minimum measured 0.073 %, R squared 0.818
  EC90: 4.17 µM
[3]; EC90 CI (lower) 0.135 uM, EC90 CI (upper) 0.222 uM, Hill slope -1.408, Maximum measured 67.754 %, Minimum measured 0.12 %, R squared 0.962
  EC90: 3.93 µM
[3]; EC90 CI (lower) 0.182 uM, EC90 CI (upper) 0.848 uM, Hill slope -1.407, Maximum measured 79.293 %, Minimum measured 0.097 %, R squared 0.879
  EC90: 8.93 µM
[3]; EC90 CI (lower) 0.301 uM, EC90 CI (upper) 0.481 uM, Hill slope -1.99, Maximum measured 82.418 %, Minimum measured 0.182 %, R squared 0.957
  EC90: 3.46 µM
[3]; EC90 CI (lower) 0.335 uM, EC90 CI (upper) 2.73 uM, Hill slope -2.159, Maximum measured 105.079 %, Minimum measured 6.932 %, R squared 0.477
  EC90: 7.32 µM
[3]; EC90 CI (lower) 0.344 uM, EC90 CI (upper) 0.572 uM, Hill slope -2.092, Maximum measured 82.86 %, Minimum measured 0.014 %, R squared 0.949
  EC90: 3.62 µM
[3]; EC90 CI (lower) 0.345 uM, EC90 CI (upper) 0.574 uM, Hill slope -1.668, Maximum measured 91.855 %, Minimum measured 0.191 %, R squared 0.984
  EC90: 6.21 µM
[3]; EC90 CI (lower) 0.345 uM, EC90 CI (upper) 1.174 uM, Hill slope -1.957, Maximum measured 94.468 %, Minimum measured 0.047 %, R squared 0.91
  EC90: 6.02 µM
[3]; EC90 CI (lower) 0.37 uM, EC90 CI (upper) 0.571 uM, Hill slope -1.792, Maximum measured 85.803 %, Minimum measured 0.04 %, R squared 0.97
  EC90: 5.34 µM
[3]; EC90 CI (lower) 0.614 uM, EC90 CI (upper) 2.492 uM, Hill slope -4.433, Maximum measured 159.506 %, Minimum measured 0.037 %, R squared 0.838
  EC90: 3.33 µM
[3]; EC90 CI (lower) 0.95 uM, EC90 CI (upper) 1.728 uM, Hill slope -2.215, Maximum measured 94.435 %, Minimum measured 0.459 %, R squared 0.976
  EC90: 9.32 µM
[3]; EC90 CI (lower) 1.094 uM, EC90 CI (upper) 1.586 uM, Hill slope -2.299, Maximum measured 103.071 %, Minimum measured 0.093 %, R squared 0.991
  EC90: 8.91 µM
[3]; EC90 CI (lower) 1.321 uM, EC90 CI (upper) 1.732 uM, Hill slope -3.141, Maximum measured 106.546 %, Minimum measured 0.058 %, R squared 0.995
  EC90: 6.13 µM
[3]; EC90 CI (lower) 1.689 uM, EC90 CI (upper) 2.244 uM, Hill slope -3.785, Maximum measured 107.412 %, Minimum measured 0.007 %, R squared 0.985
  EC90: 6.21 µM
[3]; EC90 CI (lower) […], EC90 CI (upper) 1.65 uM, Hill slope -1.956, Maximum measured 86.89 %, Minimum measured 0.152 %, R squared 0.926
  EC90: 9.09 µM
[4]; EC90 CI (lower) 0.185 uM, EC90 CI (upper) 0.987 uM, Hill slope -1.843, Maximum measured 114.823 %, Minimum measured 1.4 %, R squared 0.854
  EC90: 4.64 µM
[4]; EC90 CI (lower) […] uM, EC90 CI (upper) 0.029 uM, Hill slope -0.795, Maximum measured 131.547 %, Minimum measured 0.898 %, R squared 0.782
  EC90: 1.45 µM
[4]; EC90 CI (lower) […] uM, EC90 CI (upper) 0.107 uM, Hill slope -1.582, Maximum measured 108.655 %, Minimum measured 1.401 %, R squared 0.84
  EC90: 0.595 µM
[4]; EC90 CI (lower) […] uM, EC90 CI (upper) 0.213 uM, Hill slope -0.879, Maximum measured 109.405 %, Minimum measured 0.502 %, R squared 0.793
  EC90: 8.04 µM
[5]; EC90 CI (lower) 0.21 uM, EC90 CI (upper) 1.971 uM, Hill slope 4.843, Maximum measured 127.846 %, Minimum measured 44.624 %, R squared 0.529
  EC90: 644 nM
[5]; EC90 CI (lower) 0.347 uM, EC90 CI (upper) 1.935 uM, Hill slope 4.005, Maximum measured 138.155 %, Minimum measured 32.327 %, R squared 0.565
  EC90: 819 nM
[5]; EC90 CI (lower) 0.485 uM, EC90 CI (upper) 1.678 uM, Hill slope 2.708, Maximum measured 115.594 %, Minimum measured 50.299 %, R squared 0.731
  EC90: 902 nM
[5]; EC90 CI (lower) 0.573 uM, EC90 CI (upper) 1.709 uM, Hill slope 2.773, Maximum measured 114.82 %, Minimum measured 43.135 %, R squared 0.56
  EC90: 990 nM
[5]; EC90 CI (lower) 0.644 uM, EC90 CI (upper) 1.624 uM, Hill slope 2.782, Maximum measured 120.433 %, Minimum measured 40.681 %, R squared 0.677
  EC90: 1020 nM
[5]; EC90 CI (lower) 0.736 uM, EC90 CI (upper) 2.012 uM, Hill slope 2.837, Maximum measured 119.107 %, Minimum measured 28.833 %, R squared 0.835
  EC90: 1220 nM
[5]; EC90 CI (lower) 0.778 uM, EC90 CI (upper) 1.421 uM, Hill slope 2.877, Maximum measured 117.074 %, Minimum measured 36.973 %, R squared 0.767
  EC90: 1050 nM
[5]; EC90 CI (lower) 1.744 uM, EC90 CI (upper) 2.505 uM, Hill slope 3.857, Maximum measured 108.608 %, Minimum measured 1.409 %, R squared 0.98
  EC90: 2090 nM
[5]; Hill slope -0.24, Maximum measured 59.299 %, Minimum measured 14.65 %, R squared 0.03
  EC90: < 391 nM
